Laboratory results as given in US20250268844A1, “ANTICANCER AGENTS BASED ON CYCLOPENTENONES” (UNIVERSITY OF CRETE, priority 2022, published 2025).
Entries after “also recorded” stand apart in the source; their conditions may differ.

Experiments:
[1] = tested on: SKOV3 ovarian carcinoma cells; test: MTT conversion assay, SKOV3; type: cell-based, human; details: Homo sapiens, SK-OV-3, 48 hrs treatment
Method: (§1) In particular, Enone-1 and Enone-2 were tested for cytotoxic activity in 17 cell lines representing a broad spectrum of human tumors. They include human colorectal carcinoma (Caco2, RKO, HCT15, HT29), liver (HepG2), lung (A549), ovarian carcinoma (A2780, 2780CP, AGE60, SKOV3), anaplastic large cell lymphoma (Mac1 and Mac2a), breast carcinoma (MDA-MB-231), cervical (HeLa), bladder cancer (VM-CUB-1), melanoma (BRO), and multiple myeloma (MR20).
(§2) Each assay was performed in triplicate and repeated in 2-3 independent experiments. Specifically, to measure cell survival, 20 μl of 10 mg/ml MTT (3-([…])-2,5-diphenyl tetrazolium bromide; Sigma) was added to each well and the plates were incubated at 37° C. in 5% CO2 for 3 hours. The supernatant was removed and the formed crystals were dissolved in 200 μl dimethyl sulphoxide. The plates were then analysed at 450 nm on a plate reader. Growth inhibition (reduction in survival) was calculated by expressing the differences in optical densities between treatment wells and control wells as a percentage of the control.

[2] = tested on: Caco-2 colorectal carcinoma cells; test: MTT conversion assay, Caco-2; type: cell-based; details: Homo sapiens, Caco-2, colon, 48 hrs treatment
Method: as §1, §2

[3] = tested on: Mac2a anaplastic large cell lymphoma cells; test: MTT conversion assay, Mac2a; type: cell-based; details: Homo sapiens, ALCL, 48 hrs treatment
Method: as §1, §2

[4] = tested on: HeLa cervical carcinoma cells; test: MTT conversion assay, HeLa; type: cell-based, human; details: Homo sapiens, 48 hrs treatment
Method: as §1, §2

[5] = tested on: A2780 ovarian cancer cells; test: PrestoBlue cell viability assay; type: cell-based, human; details: Homo sapiens, 72 hrs treatment, n=3 experiments
Method: The effects of Enone-1 and Enone-2 on cancer cells were confirmed using a second methodology, namely the PrestoBlue assay (PrestoBlue™ Cell Viability Reagent, Thermo Fisher, Catalog number: A13261), a cell permeable resazurin-based solution that functions as a cell viability indicator. A2780 ovarian cancer cells were plated as described above for the MTT assays and Enone drugs were added at increasing concentrations as indicated in FIG. 2. Cell viability was determined 72 hrs later following the addition of PrestoBlue, according to the manufacturer's instructions (Thermo Fisher).

[6] = tested on: CDC6; test: CDC6 protein (immunoblot) and RNA (RT-qPCR) levels in A2780 cells; type: cell-based, human; details: 2.5 μM for 6 or 14 hours
Method: (§3) FIG. 4. Effects of Enone-2 on cell cycle and on the expression levels of replication licensing factors (RLF). (A) Representative cell cycle profiles showing progressive accumulation of A2780 ovarian carcinoma cells in the G2/M phase of the cell cycle following 24 hour treatment with 2.5 or 5 μM Enone-2. Quantification of results is shown in the form of pie charts on the right. PI: propidium iodide. (B) & (C) A2780 cells were treated with 2.5 μM Enone-2 for 6 or 14 hours and analyzed for CDC6 protein levels by immunoblot (B), or RNA levels by reverse transcription qPCR (C). The RNA levels of the RLF CDT1 were also measured by qPCR (C). ***P<0.001; **P<0.01.
(§4) Replication licensing factors (RLF) such as CDC6, MCM2-MCM7, ORC and CDT1 form origins of DNA replication in the G1 phase of the cell cycle and initiate DNA replication during the S phase. CDC6 is also involved in S-M checkpoint mechanisms that ensure that the entire genome is replicated just once per cell division. Cancer cells frequently display deregulated expression of RLFs; for example, CDC6 is over-expressed in colorectal and ovarian carcinoma and is associated with poor patient prognosis. […] Because of these characteristics, RLFs are considered as novel targets for anti-cancer therapy. […]

[7] = tested on: CDT1; test: CDT1 RNA levels (qPCR) in A2780 cells; type: cell-based, human; details: 2.5 μM for 6 or 14 hours
Method: as §3, §4

[8] = tested on: MB49 mouse bladder carcinoma cells; test: MTT assay, MB49; type: cell-based; details: 48 hrs
Method: FIG. 5: Effects of enone compounds on mouse tumor growth.
as §2
First, the impact of Enone-1 and Enone-2 on the survival of MB49 cells was verified by MTT assays performed as described in FIG. 1.

[9] = tested on: MB49 mouse bladder carcinoma tumors; test: Subcutaneous MB49 tumor growth in C57BL/6 mice; type: in vivo; details: C57BL/6 female mice; 5 mg/kg intratumorally on days 7, 10, 14 and 20; vs saline
Method: The in vivo anti-tumor effect of Enones was determined by xenotransplantation of MB49 mouse bladder carcinoma cells in syngeneic, immunocompetent C57BL/6 female mice.
On this basis, the in vivo anti-tumor activity of Enone-2 was tested. Female mice were transplanted subcutaneously with 10^6 MB49 cells which formed tumors of approx. 40-60 mm^2 size by day 7. Mice were randomly separated in 2 groups of 5 animals each and injected intratumorally with 50 μl Enone-2 to achieve 5 mg/kg drug dose on days 7, 10, 14 and 20. The tumor size was monitored using a digital caliper and expressed in mm^2 by multiplying the length (the longest diameter) with the width (the shortest diameter perpendicular to length) of the tumor.

[10] = tested on: p53; test: p53 immunoblot in A2780 cells; type: cell-based, human; details: 2.5 μM or increasing concentrations, 6 hrs or time course
Method: FIG. 8: Enones induce the p53 pathway. […] Cell lysates were analyzed for p53 and GAPDH (loading control). (B) A2780 cells were cultured in the presence or absence of 2.5 μM for the indicated time points before being analyzed for p53 and GAPDH levels. (C) Treatment of A2780 cells with 2.5 μM Enone-2 results in the up-regulation of p53-regulated genes (*p<0.05; **p<0.01; ***p<0.001, n=4). (D) Induction of p53 accumulation in AGE60 ovarian carcinoma cells following 6 or 14 hr exposure to 2.5 μM Enone-2. (E) Enone-1 induces the p53 pathway in A2780 cells which were cultured in the presence of 2.5 μM of the drug and analyzed as in (B). (F) Treatment of A2780 cells with 2.5 μM Enone-2 results in the up-regulation of p53-regulated genes (*p<0.05; **p<0.01; ***p<0.001, n=3).
The effects of Enone-2 on p53 and p53-dependent transcription of cell cycle and cell death-associated genes was confirmed by immunoblotting for p53 and by reverse transcription qPCR (RT-qPCR) for mdm2, p21, bax and bbc3/puma, established p53 target genes.

IC50 [1]: 0.3 µM
IC50 [2]: 1.8 µM
IC50 [3]: 2.3 µM
IC50 [4]: 6.2 µM
IC50 [5]: 0.12 µM
IC50 [8]: 0.6 µM
SMILES: C[C@@]1(O)C=CC(=O)[C@H]1c1ccc(F)c2ccccc12 (stereo in doubt) [Enone-2, 5-(4-fluoronaphthalen-1-yl)-4-hydroxy-4-methylcyclopent-2-en-1-one]
CDC6 RNA and protein levels [6]: reduce the key RLF CDC6 in a time-dependent manner at both RNA and protein levels
CDT1 RNA levels [7]: reduce CDT1 RNA levels
subcutaneous tumor growth (tumor size) [9]: arrested tumor growth
p53 accumulation (immunoblot) [10]: robust p53 accumulation; also recorded: robustly induced p53 accumulation
